{"source": "patent US20080267948A1", "about": "“Croos-B Structure Binding Compounds” (priority 2005, published 2008)", "key": {"human blood platelets": {"system": "human blood platelets", "test": "Platelet aggregation (aggregometric assay with washed platelets)", "assay_type": "cell-based", "procedure": "The influence of amyloid-β(1-40) E22Q Dutch type (Aβ) peptide aggregates with cross-β structure conformation on blood platelet aggregation was tested with washed platelets in an aggregometric assay. Freshly drawn human aspirin free blood was mixed gently with citrate buffer to avoid coagulation. Blood was spinned for 15′ at 150*g at 20° C. and supernatant was collected; platelet rich plasma (PRP). […] After spinning down the platelets upon centrifugation for 15′ at 330*g at 20° C., the pellet was resuspended in HEPES-Tyrode buffer pH 6.5. Prostacyclin was added to a final concentration of 10 ng/ml, and the solution was centrifuged for 15′ at 330*g at 20° C., with a soft brake. The pellet was resuspended in HEPES-Tyrode buffer pH 7.2 in a way that the final platelet number was adjusted to 200,000/μl. Platelets were kept at 37° C. for at least 30′, before use in the assays, to ensure that they were in the resting state.\nAggregation of platelets was monitored in an aggregometer (Chrono-Log Corporation, Havertown, Pa., USA) for 15 minutes at 37° C. with a magnet stirring speed of 900 rpm. First, 270 μl of platelet solution was pipetted in the cuvettes and after 1 minute of stirring, 30 μl of preincubated (5 minutes, RT) Aβ and Hematein solution or control was added. The hematein stock was 10 mg/ml in HEPES-Tyrode buffer. The Aβ stock was 1 mg/ml. For blank readings unstirred HEPES Tyrode buffer was used. The aggregation is expressed as the percentage of the light transmission (0-100%). As a positive control, synthetic thrombin receptor activating peptide (TRAP) induced platelet aggregation was used. A control experiment was performed to study the influence of the red colour of hematein on the light transmission. For this, 4 μM TRAP was added at time 1 minute to the platelets, then hematein was added after 6 minutes of aggregation. The platelets were used for not more than 4 hours after isolation to reduce variations in sensitivity amongst subsequent measurements.\nEllagic acid was first dissolved to 100 mg/ml in DMSO, and then further diluted to 1 mg/ml in HBS buffer. Final concentrations of Aβ and ellagic acid in the aggregation assay were 50 μg/ml and 25/50 μg/ml, respectively. In addition, the influence of ellagic acid alone on platelet aggregation was tested. As a control, the influence of 0.08% DMSO on 50 μg/ml Aβ-induced platelet aggregation was analyzed. The 100% DMSO of the ellagic acid stock was diluted 2000 and 4000×, resulting in […] final DMSO concentrations in the aggregation assay."}, "heat-denatured ovalbumin": {"biological_target": "T1, heat-denatured ovalbumin (Gallus gallus, UniProt P01012)", "T1 construct": "purchased Sigma A5503", "T1 sequence (P01012 1-386)": "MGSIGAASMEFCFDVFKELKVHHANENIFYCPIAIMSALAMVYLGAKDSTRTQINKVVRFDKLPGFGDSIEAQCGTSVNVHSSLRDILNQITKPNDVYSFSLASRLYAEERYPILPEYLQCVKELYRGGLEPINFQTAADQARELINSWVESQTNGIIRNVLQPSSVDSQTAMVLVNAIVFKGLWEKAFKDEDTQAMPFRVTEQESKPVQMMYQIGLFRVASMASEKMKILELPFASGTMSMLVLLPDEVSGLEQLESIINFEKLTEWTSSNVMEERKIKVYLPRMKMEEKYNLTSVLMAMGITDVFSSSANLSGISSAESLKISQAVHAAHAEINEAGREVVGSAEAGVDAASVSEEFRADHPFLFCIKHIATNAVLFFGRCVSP", "test": "Thioflavin T fluorescence of ovalbumin and small compounds", "parameters": "species or system chicken", "conditions": "1 mg/ml compound, 1 mg/ml OVA", "procedure": "To establish the enhancement of Thioflavin T fluorescence by ovalbumin preparations, 90 μl of 25 μM ThT-solution in 50 mM Glycine buffer (pH 9.0) was added to 10 μl sample in duplicate wells of black 96-wells plates. Heat-denatured ovalbumin at 1 mg/ml in PBS with no addition, DMSO at a final concentration of 1% v/v, or 1 mg/ml of the compounds listed in Table 7, was used. Compound stocks are 100 mg/ml in DMSO. In addition, ovalbumin at 1 mg/ml with the same additions was first heat denatured and subsequently used in the fluorescence assay. Heat denaturation was according to the protocol given above. Fluorescence of duplicates was measured on a Thermo Fluoroskan Ascent 2.5, at 435 nm excitation and 485 nm emission wavelengths."}, "tPA/plasminogen [1]": {"biological_target": "T2, tPA/plasminogen (Homo sapiens, UniProt P00750)", "T2 construct": "purchased Boehringer Ingelheim Actilyse", "T2 sequence (P00750 36-562)": "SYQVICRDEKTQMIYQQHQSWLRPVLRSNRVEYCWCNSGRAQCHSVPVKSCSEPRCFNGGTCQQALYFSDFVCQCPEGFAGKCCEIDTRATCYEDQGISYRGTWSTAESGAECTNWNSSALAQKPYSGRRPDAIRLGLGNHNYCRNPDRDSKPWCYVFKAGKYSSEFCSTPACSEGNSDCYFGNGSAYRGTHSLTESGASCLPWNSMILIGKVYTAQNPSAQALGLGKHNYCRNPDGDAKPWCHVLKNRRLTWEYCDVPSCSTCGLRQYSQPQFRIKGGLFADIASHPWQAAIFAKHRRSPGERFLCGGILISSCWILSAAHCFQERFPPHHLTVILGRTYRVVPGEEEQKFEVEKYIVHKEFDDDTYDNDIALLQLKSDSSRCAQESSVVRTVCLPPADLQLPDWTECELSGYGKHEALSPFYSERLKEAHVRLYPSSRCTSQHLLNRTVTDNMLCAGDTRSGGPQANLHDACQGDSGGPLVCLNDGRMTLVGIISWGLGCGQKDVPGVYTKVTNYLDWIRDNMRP", "test": "tPA/plasminogen activation by pre-formed misfolded OVA in the presence of compounds", "assay_type": "biochemical", "conditions": "80-fold or 160-fold diluted compound and misfolded OVA stocks of 1 mg/ml", "procedure": "[…] Negative control was buffer without OVA. […] In addition, it was assessed whether the compounds interfere with absorbance readings at 405 nm, with converted chromogenic substrate. […] The yellow solution is divided over wells of an ELISA plate. […] Signals are compared and related to the control."}, "ovalbumin": {"biological_target": "T3, ovalbumin (Gallus gallus, UniProt P01012)", "T3 construct": "purchased Sigma A5503", "T3 sequence (P01012 1-386)": "T1 sequence (P01012 1-386)", "test": "Transmission electron microscopy of ovalbumin heated in the presence of small compounds", "parameters": "species or system chicken", "conditions": "1 mg/ml ovalbumin heated with 1 mg/ml compound", "procedure": "For TEM analyses grids were prepared according to standard procedures. Ovalbumin samples at 1 mg/ml were applied to 100-mesh copper grids with carbon coated Formvar (Merck, Germany), and subsequently washed with PBS and H2O. Grids were applied to droplets of 2% (m/v) methylcellulose with 0.4% (m/v) uranylacetate pH 4. After a 2-minutes incubation grids were dried on a filter. Images were recorded at 80 kV, at suitable magnifications on a JEM-1200EX electron microscope (JEOL, Japan)."}, "tPA/plasminogen [2]": {"biological_target": "T2, tPA/plasminogen", "test": "tPA/plasminogen activation by OVA heated in the presence of compounds (substrate PNAPEP1751)", "assay_type": "biochemical", "conditions": "25 μg/ml OVA, 25 μg/ml compound, […] DMSO", "procedure": "Heated OVA, either in PBS/1% DMSO (positive control), or in the same buffer in the presence of 1 mg/ml of the compounds, was used 40-fold diluted in the assay. Negative control was buffer without OVA. […] In addition, it was assessed whether the compounds interfere with absorbance readings at 405 nm, with converted chromogenic substrate. […] The yellow solution is divided over wells of an ELISA plate. […] Signals are compared and related to the control."}, "tPA": {"biological_target": "tPA (Homo sapiens, UniProt P00750)", "sequence (P00750 36-562)": "as above", "test": "tPA serine protease activity with OVA heated in the presence of compounds (substrate S-2765)", "assay_type": "biochemical", "parameters": "purchased Boehringer Ingelheim Actilyse", "conditions": "OVA heated with 1 mg/ml compound, 80-, 160- or 320-fold diluted, 100 nM tPA", "procedure": "For this purpose, the influence of the compounds on heat-denaturation of OVA was analyzed (see above: Thioflavin T fluorescence measurements). Heated OVA at 1 mg/ml in PBS in the presence or absence of 1 mg/ml of the twelve compounds listed in Table 7 in PBS/DMSO (final DMSO concentration 1%) was used 80-fold or 160-fold or 320-fold diluted (final heated OVA concentration and compound concentration was 12.5 or 6.3 or 3.1 μg/ml; final DMSO concentration was 0.013% and 0.006% and 0.003%)."}, "Hb-AGE": {"biological_target": "T4, Hb-AGE (Homo sapiens, UniProt P68871+P69905)", "T4 construct": "purchased Sigma-Aldrich H7379", "T4 sequence (P69905 2-142 limits assumed)": "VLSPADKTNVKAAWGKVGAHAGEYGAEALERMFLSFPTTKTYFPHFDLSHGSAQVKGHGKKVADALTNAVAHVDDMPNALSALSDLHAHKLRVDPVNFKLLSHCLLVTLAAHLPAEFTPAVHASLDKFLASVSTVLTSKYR", "T4 sequence (P68871 2-147 limits assumed)": "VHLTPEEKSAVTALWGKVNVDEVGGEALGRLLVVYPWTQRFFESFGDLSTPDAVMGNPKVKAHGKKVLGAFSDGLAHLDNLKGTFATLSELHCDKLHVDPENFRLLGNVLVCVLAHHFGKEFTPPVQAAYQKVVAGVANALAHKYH", "test": "ELISA binding of tPA to immobilized Hb-AGE after pre-incubation with compounds", "conditions": "Hb-AGE first overlayed with compound (concentration series), then tPA", "procedure": "Compounds were now diluted 10× in PBS/0.1% Tween20 (500 μg/ml compound). […] With the selection, similar binding assays are performed with misfolded OVA and Aβ. Finally, concentration series of the selected compounds are used in the binding studies."}, "amyloid-β(1-40) E22Q": {"biological_target": "T5, amyloid-β(1-40) E22Q (Homo sapiens, UniProt P05067, E693Q)", "T5 construct": "For similar ELISA's with DOVA and Aβ(1-40) E22Q, 1 μg/ml DOVA or Aβ was coated; purchased Peptide facility, Dutch Cancer Institute, Amsterdam; host or cells: synthetic peptide", "T5 sequence (P05067 672-711 E693Q)": "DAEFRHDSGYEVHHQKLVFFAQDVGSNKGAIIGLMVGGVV", "test": "ELISA binding of tPA to immobilized Aβ after pre-incubation with compounds", "conditions": "Aβ first overlayed with compound (concentration series), then tPA", "procedure": "Compounds were now diluted 10× in PBS/0.1% Tween20 (500 μg/ml compound). […] With this approach a further selection of the compounds was achieved. Now, compounds that at least interact with HB-AGE are selected. With the selection, similar binding assays are performed with misfolded OVA and Aβ. Finally, concentration series of the selected compounds are used in the binding studies."}}, "note": "Entries after “also recorded” stand apart in the source; their conditions may differ.", "data": [{"molecule": "O=C1C=C2CC3(O)COc4c(ccc(O)c4O)C3=C2C=C1O", "note": "(stereo not shown) [compound 152, Hematein]", "values": [{"measurement": "influence on Aβ induced platelet aggregation", "setting": "human blood platelets; 100 μg/ml Aβ and 333 μg/ml haematein added together", "value": "almost completely blocked; also recorded: potent inhibitor of misfolded Aβ-induced platelet aggregation; also recorded: Inhibition of Aβ-induced platelet aggregation"}, {"measurement": "reduction of TRAP-induced platelet aggregation", "setting": "human blood platelets; TRAP and haematein pre-mixed", "value": "approximately 10%"}, {"measurement": "influence on Thioflavin T fluorescence with misfolded OVA", "setting": "heat-denatured ovalbumin", "value": "Inhibition on Thioflavin T fluorescence with misfolded OVA"}, {"measurement": "influence on tPA/plasminogen activation by pre-formed misfolded OVA", "setting": "tPA/plasminogen [1]", "value": "Full block of tPA/plasminogen activation by misfolded OVA"}, {"measurement": "appearance of ovalbumin heated in the presence of compound on TEM image", "setting": "ovalbumin; listed as Haematein", "value": "No large aggregates. Small aggregates at a lower"}, {"measurement": "appearance of ovalbumin heated in the presence of compound on TEM image", "setting": "ovalbumin; listed as haematein", "value": "less OVA aggregates after heating in the presence of the"}, {"measurement": "influence on tPA/plasminogen activation by OVA pre-heated in the presence of compound", "setting": "tPA/plasminogen [2]", "value": "Inhibition of tPA/plasminogen activation by OVA pre-heated"}, {"measurement": "influence on tPA protease activity of OVA heated in the presence of compound", "setting": "tPA", "value": "Potentiation of tPA protease activity"}, {"measurement": "influence on tPA binding to immobilized Hb-AGE", "setting": "Hb-AGE", "value": "Inhibited tPA binding to immobilized misfolded protein (Hb-"}, {"measurement": "influence on tPA binding to immobilized Aβ", "setting": "amyloid-β(1-40) E22Q", "value": "Stimulated tPA binding to immobilized misfolded protein (Aβ,"}]}]}
